Columns and labels:
[1] = target: T1, Sterol O-acyltransferase 2 (Homo sapiens) (UniProt O75908); assay: Inhibition of human ACAT2 expressed in insect Hi5 cells at 50 uM; conditions: BTI-TN-5B1-4
T1 sequence (whole entry): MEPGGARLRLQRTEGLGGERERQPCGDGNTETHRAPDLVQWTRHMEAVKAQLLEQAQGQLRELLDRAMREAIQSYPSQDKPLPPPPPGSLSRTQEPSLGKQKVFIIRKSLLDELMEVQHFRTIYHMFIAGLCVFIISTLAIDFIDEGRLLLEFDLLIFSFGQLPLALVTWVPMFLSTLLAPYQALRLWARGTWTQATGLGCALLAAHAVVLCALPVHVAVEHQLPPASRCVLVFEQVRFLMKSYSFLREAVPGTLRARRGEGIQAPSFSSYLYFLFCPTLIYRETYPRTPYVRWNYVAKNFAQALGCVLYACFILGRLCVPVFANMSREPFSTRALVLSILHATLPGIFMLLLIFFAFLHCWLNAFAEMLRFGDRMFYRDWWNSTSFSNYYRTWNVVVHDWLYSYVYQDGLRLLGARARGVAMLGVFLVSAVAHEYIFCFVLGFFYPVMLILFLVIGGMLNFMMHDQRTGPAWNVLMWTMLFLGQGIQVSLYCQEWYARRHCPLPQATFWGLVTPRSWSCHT

[2] = target: T2, Sterol O-acyltransferase 2 (Homo sapiens, UniProt O75908); assay: Inhibition of human ACAT2 expressed in insect Hi5 cells; parameters: species or system BTI-TN-5B1-4
T2 sequence (O75908 whole entry): T1 sequence (whole entry)

[3] = target: T3, Sterol O-acyltransferase 1 (Homo sapiens) (UniProt P35610); assay: Inhibition of human ACAT1 expressed in insect Hi5 cells at 0.5 uM; conditions: BTI-TN-5B1-4
T3 sequence (whole entry): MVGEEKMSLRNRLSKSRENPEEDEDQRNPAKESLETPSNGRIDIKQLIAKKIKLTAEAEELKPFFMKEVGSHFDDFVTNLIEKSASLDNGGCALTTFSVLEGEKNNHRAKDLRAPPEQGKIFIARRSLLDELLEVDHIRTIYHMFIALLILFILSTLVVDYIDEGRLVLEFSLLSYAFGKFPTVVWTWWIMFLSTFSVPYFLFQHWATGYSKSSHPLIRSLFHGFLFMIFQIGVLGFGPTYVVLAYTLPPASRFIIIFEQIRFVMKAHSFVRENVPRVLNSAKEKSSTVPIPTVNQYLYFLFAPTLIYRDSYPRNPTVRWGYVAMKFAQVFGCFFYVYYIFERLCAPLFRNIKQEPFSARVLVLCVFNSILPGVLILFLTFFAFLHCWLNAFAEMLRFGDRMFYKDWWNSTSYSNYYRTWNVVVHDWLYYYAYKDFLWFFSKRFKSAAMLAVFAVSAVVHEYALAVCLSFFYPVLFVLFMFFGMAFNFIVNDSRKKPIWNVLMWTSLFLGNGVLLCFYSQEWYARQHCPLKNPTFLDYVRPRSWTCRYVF

[4] = target: T1, Sterol O-acyltransferase 2 (Homo sapiens); assay: Inhibition of human ACAT2 expressed in insect Hi5 cells at 0.5 uM; conditions: BTI-TN-5B1-4

| inhibition [1] [%] | Compound | also measured |
| --- | --- | --- |
| 18 | CCCCCCCCCNc1ccc(-c2ccccc2)cc1 |  |
| -1 | CCCCCCCCCNc1ccccc1-c1ccccc1 |  |
| -4 | CCCCCCCC(=O)Nc1cccc(-c2ccccc2)c1 |  |
| 39 | CCCCCCCC(=O)Nc1ccccc1-c1ccccc1 | IC50 [2]: 230 µM |
| 20 | CCCCCCCCC(=O)Nc1ccc(-c2ccccc2)cc1 |  |
|  | CCCCCCCC/C=C\CCC(CCCC(C(=O)Nc1ccccc1)C(C)C)C(C)C (stereo not given) | inhibition [3]: 53%; inhibition [4]: 47% |
| -8 | CCCCCCCCCNc1cccc(-c2ccccc2)c1 |  |
| -6 | CCCCCCCCC(=O)Nc1cccc(-c2ccccc2)c1 |  |
| 27 | CCCCCCCCC(=O)Nc1ccccc1-c1ccccc1 | IC50 [2]: 414 µM |
| 6 | CCCCCCCCNc1ccc(-c2ccccc2)cc1 |  |
| 11 | CCCCCCCC(=O)Nc1ccc(-c2ccccc2)cc1 |  |
| -4 | CCCCCCCCNc1ccccc1-c1ccccc1 |  |

Source: ChEMBL document CHEMBL1141600, “Biphenyl versus phenylpyridazine derivatives: the role of the heterocycle in a series of acyl-CoA:cholesterol acyl transferase inhibitors” (J Med Chem, 2008)
